Our source for the IC50 values is the Kinase Knowledgebase extract (Sharma et al. 2016).

SMILES strings stand for the structures.

The test deals with MAPK14 (human) (UniProt Q16539). The experiment in a line: TNF-alpha Release Inhibition (LPS-stimulated PBMCs). As to conditions: pbmc.
Chain of MAPK14 (human) (Q16539 whole entry, looked up): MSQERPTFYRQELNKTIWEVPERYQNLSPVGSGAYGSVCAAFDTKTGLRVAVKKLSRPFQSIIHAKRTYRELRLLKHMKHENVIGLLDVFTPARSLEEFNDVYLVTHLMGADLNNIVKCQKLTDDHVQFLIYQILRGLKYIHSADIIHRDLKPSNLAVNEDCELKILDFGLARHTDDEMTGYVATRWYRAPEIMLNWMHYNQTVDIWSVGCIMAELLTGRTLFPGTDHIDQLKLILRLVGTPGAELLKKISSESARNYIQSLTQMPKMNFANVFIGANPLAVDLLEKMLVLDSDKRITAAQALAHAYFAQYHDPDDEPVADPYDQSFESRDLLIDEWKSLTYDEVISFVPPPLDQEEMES
`Nc1cc(OCc2ccc(F)cc2)c2c(-c3ccncc3)c(-c3ccc(F)cc3)[nH]c2n1`: the IC50 (commonly the point on the concentration scale where inhibition reaches its midpoint) worked out at 2 nM.

Regarding `CN(C)c1ccc2c(-c3ccncc3)c(-c3ccc(F)cc3)[nH]c2n1`, the IC50 is 400 nM.

Compound `Fc1ccc(-c2[nH]c3ccccc3c2-c2ccncc2)cc1` displayed an IC50 above 10000 nM.

Take `COc1ccc2c(-c3ccncc3)c(-c3cccc(Cl)c3)[nH]c2c1`: the IC50 was 125 nM.

For the compound `CCCCOc1cc(O)nc2[nH]c(-c3ccc(F)cc3)c(-c3ccncc3)c12`, the IC50 is 15 nM.

For the compound `Fc1ccc(-c2[nH]c3ncccc3c2-c2ccncc2)cc1`, the half-maximal inhibitory concentration (IC50) worked out at 400 nM.

`Nc1ccc2c(-c3ccncc3)c(-c3ccc(F)c(F)c3)[nH]c2n1` had a 50% inhibitory concentration (IC50) of 30 nM.

In turn, `COc1ccc2c(-c3ccncc3)c(-c3ccc(F)cc3)[nH]c2n1` registered a half-inhibitory concentration (IC50) of 200 nM.

On to `Nc1ccc2c(-c3ccncc3)c(-c3cccc(I)c3)[nH]c2n1`, for which the IC50 turned out to be 40 nM.

`COc1ccc2c(-c3ccncc3)c(-c3ccc(F)cc3)[nH]c2c1` had an IC50 of 400 nM.

With `CC(=O)Nc1ccc2c(-c3ccncc3)c(-c3ccc(F)cc3)[nH]c2n1`, the half-maximal inhibitory concentration (IC50) came to 100 nM.

On to `Nc1ccc2c(-c3ccncc3)c(-c3cccc(Cl)c3)[nH]c2n1`, for which the IC50 turned out to be 9 nM.

Turning to `CCCCOc1cc(OC)nc2[nH]c(-c3ccc(F)cc3)c(-c3ccncc3)c12`, the half-inhibitory concentration (IC50) was 6 nM.

Compound `Nc1ccc2c(-c3ccncc3)c(-c3ccc(F)cc3)[nH]c2c1` had a concentration for half-maximal inhibition (IC50) of 200 nM.

The compound `Fc1ccc(-c2[nH]c3nc(NCc4ccccc4)ccc3c2-c2ccncc2)cc1` had a half-inhibitory concentration (IC50) of 300 nM.

Take `Oc1ccc2c(-c3ccncc3)c(-c3ccc(F)cc3)[nH]c2n1`: the IC50 was above 10000 nM.

The compound `COc1ccc2c(-c3ccncc3)c(-c3ccc(I)cc3)[nH]c2c1` yielded a half-inhibitory concentration (IC50) of 6500 nM.

`CCOc1ccc(-c2[nH]c3nc(N)ccc3c2-c2ccncc2)cc1Cl` registered an IC50 of 60 nM.

The compound `COc1ccc2c(-c3ccncc3)c(-c3cccc(I)c3)[nH]c2c1` registered a half-inhibitory concentration (IC50) of 100 nM.

Turning to `COc1ccc2c(-c3ccncc3)c(-c3cccc(F)c3)[nH]c2c1`, the IC50 is 300 nM.
